Assay results reported in the METLIN SMRT retention time set (Domingo-Almenara et al. 2019).

Experiment: gradient 5% acetonitrile 3 min, to 50% in 2 min, to 85% in 15 min, held 3 min, 100 µL/min
Conditions: column: Zorbax Extend-C18 2.1 x 50 mm; eluents: water / acetonitrile, 0.1% formic acid
In short: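 In both positive and negative ionization mode, a quadrupole time-of-flight mass spectrometer coupled to HPLC analyzed pure standards run in mixtures of ~100 molecules. The Zorbax Extend-C18 column (2.1 × 50 mm, 1.8 μm) was operated at 100 μL/min with water and acetonitrile, each containing 0.1% formic acid. The dead volume was 40 μL and the dwell volume 900 μL. Retention time came from adduct peaks that were computationally picked and individually inspected by hand.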

RP-LC retention time | SMILES
896 s | CCOC(=O)c1c(S(=O)(=O)N2CCC(C(=O)NCCC3=CCCCC3)CC2)c(C)n(C)c1C
1100 s | Cc1sc(-c2cc(C(F)(F)F)[nH]n2)cc1S(=O)(=O)N1CCC(C)CC1
879 s | CCS(=O)(=O)Nc1ccc(C2(C(=O)NCC(C)C)CCCCC2)cc1
680 s | CCOC(=O)Nc1nc(CC(=O)NCCc2c[nH]c3ccccc23)cs1
827 s | COc1ccc(OC)c(NC(=O)CCc2c(C)nn(-c3cc(N4CCCC4)ncn3)c2C)c1
671 s | O=C(NCC1CCOCC1)c1ccccc1Br
851 s | COc1cc2c(cc1OC)CN(C(=O)CSc1ncnc3sc(C)c(C)c13)CC2
1010 s | CC(C)C(=O)c1c(C(C)C)nn2ccccc12
694 s | CCc1cccc(C)c1NC(=O)Cn1cnc2nc(N3CCCC(C(=O)NC4CC4)C3)sc2c1=O (centres undefined)
592 s | Fc1ccccc1-c1nc2ccccc2[nH]1
615 s | O=C(Cn1c(C2CCCO2)nc2ccccc21)NCc1cccs1 (centres undefined)
786 s | CC(C)Cc1ccc(S(=O)(=O)N2CCC3(CC2)CCC(O)(CN2CCCC2)CC3)cc1
775 s | O=C(CSCCSCC(=O)Nc1ccccc1)Nc1ccccc1
608 s | CCC(=O)N(C1CCOCC1)C1CCN(Cc2cc(F)c(F)cc2F)CC1
557 s | CCCNc1cc(N2CCC(CCC(=O)NCCc3ccccn3)CC2)ncn1
1040 s | C[C@H]1CN(C(=O)c2ccc(F)cc2F)C[C@@H]1c1nc(-c2ccccc2)no1
952 s | O=C(Cn1cccc(-c2nc(-c3ccc(Br)cc3)no2)c1=O)NCc1ccc(F)cc1
1240 s | c1ccc(C2(c3nc(-c4ccc(-n5cccn5)nc4)no3)CC2)cc1
762 s | CCOC(=O)N1CCN(C(=O)CSc2nnc(C3COc4ccccc4O3)o2)CC1 (centres undefined)
694 s | CC(C)c1ccc2c(c1)-c1ccccc1S(=O)(=O)N2CC(=O)NCCCN1CCOCC1
1000 s | Cc1ccc(NC(=O)Cn2nc(N3CCCC3)c3ccccc3c2=O)cc1C
1200 s | Cc1ccc(-n2ncc3c(=O)n(Cc4nc(-c5ccc(OC(F)(F)F)cc5)no4)cnc32)cc1
700 s | COC(=O)C(Cc1ccccc1)NC(=O)Nc1cccn2cnnc12 (centres undefined)

RP-LC retention time | SMILES
668 s | CCSc1ccccc1C(=O)Nc1cccc2ccc(-n3ccnc3)nc12
679 s | O=C(Cc1c(Sc2ccccc2)[nH]c2ccccc12)N1CCN(c2ccccn2)CC1
897 s | CCOC(=O)c1ccc(NC(=O)C23CCC(C)(C(=O)C2)C3(C)C)cc1 (centres undefined)
714 s | COc1ccc(C)cc1N(C)C(=O)Cn1ccc2c(=O)n(C)c(=O)n(C)c21
1080 s | O=C1C2N=NN(Cc3nc(-c4ccc(Br)cc4)no3)C2C(=O)N1c1cccc(F)c1 (centres undefined)
666 s | O=C(Cn1nc2nc(N3CCOCC3)ccn2c1=O)Nc1ccc(F)c(F)c1
1040 s | Cc1noc(C)c1-c1ccc(S(=O)(=O)NC2CCCc3ccccc32)cc1 (centres undefined)
669 s | CSc1ccc(CC(=O)Nc2nnc(-c3cc(C)n(C)n3)o2)cc1
750 s | Cc1ccc(Nc2c(-c3ccccc3)nc3ccc(C)cn23)cc1
689 s | CCN1C(=O)C(CC(=O)NCC(C)C)Sc2ncccc21 (centres undefined)
650 s | COc1ccccc1N1CCN(CCCCN2C(=O)CCC2=O)CC1
914 s | O=C(NCc1csc(-c2ccccc2)n1)C1CCN(S(=O)(=O)c2ccccc2F)CC1
665 s | Cc1oc2c(c1C(=O)Nc1ccc3c(c1)OCO3)C1=NC(C)(C)CN1C=N2
663 s | CC(=O)Nc1onc(C)c1-c1ccc(C)c(S(=O)(=O)NCCc2ccc(S(N)(=O)=O)cc2)c1
649 s | O=C(c1cc(-c2ccc(Br)cc2)n[nH]1)N1CCN(c2ccc(N3CCOCC3)nn2)CC1
821 s | O=C(CSc1ccc(S(=O)(=O)c2ccccc2)nn1)Nc1ccc2c(c1)OCCO2
590 s | CS(=O)(=O)c1ccc(Cl)c(NC(=O)c2cccnc2)c1
725 s | CC(C(=O)NCCCN(C)Cc1ccccc1)n1c(=O)c(C(F)(F)F)nc2ccccc21 (centres undefined)
725 s | COCCNC(=O)N1c2ccccc2NC2=C(C(=O)CC(C)(C)C2)C1c1ccccc1OC (centres undefined)
769 s | CCc1ccc(NC(=O)N2CCC(c3nc(C(=O)N(C)C)c(C)o3)CC2)cc1
1130 s | CCC(C)NC(=O)Cn1nc2c3sc(N(C)C)nc3ncn2c1=O (centres undefined)
869 s | Cc1cc(S(=O)(=O)N2CCC(n3cnnc3-c3ccccc3)CC2)ccc1Cl
584 s | O=C(NCc1ccccc1F)c1ccc2c(c1)CN(C1CCSCC1)CCO2

RP-LC retention time | SMILES
634 s | CCC(C)Sc1nnc(-c2cn(C)nc2OC)n1CCOC (centres undefined)
524 s | CCNc1cc(N2CCC(CCC(=O)N3CCN(C(C)C)CC3)CC2)ncn1
785 s | CC(C)NC(=O)C1CCCN(c2nc3ncn(CC(=O)Nc4ccc(C(C)C)cc4)c(=O)c3s2)C1 (centres undefined)
826 s | Cc1ccc(C2Cn3cnc(C(=O)N4CCC(C(=O)NCCc5ccccc5)CC4)c3CO2)cc1 (centres undefined)
857 s | O=C(Cn1cnc(-c2noc(-c3ccc(F)cc3)n2)c1)NCc1ccc(F)cc1
682 s | CCn1cc(CC(=O)NCc2ccc(C)o2)c2cccnc21
822 s | CCOc1cc(=O)n2c(c1C(=O)Nc1cc(F)ccc1Cl)CCCC2
853 s | CC(=O)c1ccc(N2CCN(c3ccc(NC(=O)C4CCC4)c(C(=O)O)c3)CC2)cc1
648 s | Cc1nn(C)c(C)c1CCN(C)C(=O)CC1=C2CCCCC2N(C(C)C)C1=O (centres undefined)
705 s | Cc1ccc(CNC(=O)C2CCN(c3cnc4nccnc4c3)CC2)cc1
603 s | CC(C)NC(=O)CN1CCN(c2cc(C(=O)O)c3cc(NC(=O)c4ccc(F)cc4)ccc3n2)CC1
943 s | O=C(NCc1ccccc1)C1CCCN(c2nc3ccsc3c(=O)n2Cc2ccc(F)cc2)C1 (centres undefined)
901 s | CCC(=O)N1CCc2c([nH]c3ccc(Cl)cc23)C12C(=O)N(C)c1ccccc12 (centres undefined)
638 s | Cc1ccc(CN2CCC(CNC(=O)Cn3c(=O)c(C)nc4cc(C)c(C)cc43)C2)cc1 (centres undefined)
617 s | Cn1c(CNC(=O)C2CCC2)nc2c1CN(S(=O)(=O)c1cccs1)CC2
663 s | CCn1nc(-c2ccc(OC)c(S(=O)(=O)N3CCC(C(N)=O)CC3)c2)c2c(c1=O)CCCC2
965 s | CCc1ccc(NC(=O)N2CCc3c(c(-c4nnc(-c5ccc(F)cc5)o4)nn3C)C2)cc1
695 s | COCCNC(=O)C(C)n1nc(C)c2c(C)n(-c3ccccc3)nc2c1=O (centres undefined)
597 s | COc1cccc(OC)c1CN1CCC2(CC1)CC(O)CCO2 (centres undefined)
604 s | Cc1nn(CC(=O)NCCCN(C)C)c(=O)c2nc(-c3ccccc3)sc12
887 s | O=C(Cn1cnc2c(sc3nc(-c4ccccc4)ccc32)c1=O)NCc1ccco1
1080 s | COc1cccc(C(=O)c2oc3ccccc3c2NC(=O)c2ccccc2[N+](=O)[O-])c1
694 s | O=C(Nc1ccc2c(c1)OCO2)C1CC(=O)N(c2n[nH]c3cccc(F)c23)C1 (centres undefined)

RP-LC retention time | SMILES
989 s | Cn1cc(-c2nc(C(=O)NCc3ccccc3Cl)cs2)c2cccnc21
855 s | COCCC1CCN(C(=O)COc2cccc(Cl)c2)CC1
1070 s | Cc1ccc(S(=O)(=O)N2CCc3c(c(-c4nnc(-c5ccccc5)o4)nn3C)C2)cc1Cl
619 s | CC1CCN(C(=O)c2ccc3ncnc(N4CCCC4)c3c2)CC1
619 s | CCn1ccc(C(=O)N2CCC(Cc3nc4cccnc4n3CC(C)C)C2)n1 (centres undefined)
654 s | Cc1[nH]c(C(=O)N2CCCC(C(=O)NCCN3CCCCCC3)C2)c(C)c1C(=O)OC(C)C (centres undefined)
875 s | CCOCCCNC(=O)C1c2c(n(C)c3ccccc23)SCC(=O)N1Cc1ccc(OC)cc1 (centres undefined)
650 s | Cc1cc(C)c2nc(C)cc(C(=O)NC(C)C)c2c1
1070 s | Cc1ccc(Sc2nccnc2N2CCC(C(=O)NCc3ccc(F)cc3F)CC2)cc1
960 s | COc1ccc(S(=O)(=O)Cc2nc(-c3ccc(C)cc3)no2)cc1OC
633 s | Cc1ccc2c(C(=O)NCCc3cccs3)cc(NC(=O)C3CC3)cc2n1
622 s | Cn1c(C(=O)NCc2cc(F)ccc2F)cc2ccncc21
870 s | CCn1ccc(C(=O)N2CCCC2c2ccccc2C)n1 (centres undefined)
1010 s | CCOC(=O)C(Cc1c[nH]c2ccccc12)NC(=O)COc1ccc(Cl)cc1 (centres undefined)
772 s | CS(=O)(=O)N1CCC(C(=O)N2CCC(COCc3ccccc3)CC2)CC1
667 s | Cc1nn(-c2ccc(N3CCCCC3)nn2)c(C)c1CCC(=O)NCc1ccco1
720 s | CCc1nnc(-c2cc(NC(=O)Cc3c[nH]c4ccccc34)c(C)s2)o1
663 s | O=C(Cn1nc2n(c1=O)CCCC2)NCc1ccccc1Br
642 s | Cn1nc(CN2CCOCC2)c2c1CCN(S(=O)(=O)c1cc(F)cc(F)c1)C2
853 s | CCC(=O)N1CCc2ccccc2C1C(=O)NCc1ccc(SC)cc1 (centres undefined)
